The target of data set [1] is T1, μ-opioid receptor (Mus musculus, UniProt P42866).
T1 construct: FLAG; expressed in transfected cells
In words: biochemical. Also noted: species or system human.

Data set [2] concerns the target T2, δ-opioid receptor (Mus musculus, UniProt P32300).
T2 construct: hemagglutinin (HA); expressed in transfected cells
The data set is described as follows: biochemical. Also noted: species or system human.

The test system of data set [3] is rats trained to self-administer a 10% (w/v) ethanol solution. The data set is described as follows: Operant oral ethanol self-administration. Format: in vivo, rat. The following applies: for Overall effect on operant self-administration of 10% ethanol: ANOVA, treatment 30 min prior to testing; for ED50: Rattus norvegicus, po, read-out: ED50 for ethanol self-administration.
Experimental: (§1) Ethanol or saccharin (SACC) self-administration training was conducted in standard operant cages (Coulbourn Instruments, PA) located in sound-attenuated, ventilated cubicles. Two 35-ml syringes dispensed either ethanol/SACC or water through plastic tubing into two stainless steel drinking cups mounted 4 cm above the grid floor and centered on the front panel of each chamber. Each drinking cup held 2 reinforcer deliveries (0.1 ml fluid/reinforcer). Two retractable levers were located 4.5 cm to either side of the drinking cups. Fluid delivery and recording of operant responses were controlled by a microcomputer. Briefly, animals were trained to voluntarily self-administer 10% (w/v) ethanol (n=10) or saccharin (n=6) by the oral route using the saccharin fadeout method^39 and were tested for their response for ethanol or saccharin solution in a two-lever free choice situation. Once baseline ethanol and saccharin intake were achieved (i.e., when responding across 3 consecutive days varied less than 20% and response rates correspond to pharmacologically relevant blood alcohol levels (BALs)), dose response testing for each compound commenced. To allow for a complete dissipation of any carry-over effects, a one week washout period, where rats were re-baselined during daily 30 min operant sessions, occurred between testing of each compound.
(§2) Data were collected on-line simultaneously from multiple operant chambers. Results of the operant procedure are reported as mean cumulative number of bar presses for ethanol or saccharin. In general, tests for homogeneity of variance were first performed on the data. […] Data were analyzed using the StatView statistical package on a PC-compatible computer. Mixed-design ANOVAs were used with drug treatments as a within-subjects factor (i.e., repeated measures design for drug treatment). A priori analysis examining individual drug doses to vehicle control dose was conducted using paired t-tests. Significant drug effects were defined as having p<0.05 compared to vehicle-treated rats.

Data set [4] relates to rats trained to orally self-administer a 0.025% saccharin solution. In words: Operant oral saccharin self-administration (control). As to conditions: for Overall effect on operant self-administration of saccharin vs vehicle: ANOVA. In kind it is in vivo, rat.
Experimental: as §1, §2
The target of data set [5] is T3, NOP (nociceptin) receptor (Homo sapiens, UniProt P41146).
T3 sequence (P41146 whole entry): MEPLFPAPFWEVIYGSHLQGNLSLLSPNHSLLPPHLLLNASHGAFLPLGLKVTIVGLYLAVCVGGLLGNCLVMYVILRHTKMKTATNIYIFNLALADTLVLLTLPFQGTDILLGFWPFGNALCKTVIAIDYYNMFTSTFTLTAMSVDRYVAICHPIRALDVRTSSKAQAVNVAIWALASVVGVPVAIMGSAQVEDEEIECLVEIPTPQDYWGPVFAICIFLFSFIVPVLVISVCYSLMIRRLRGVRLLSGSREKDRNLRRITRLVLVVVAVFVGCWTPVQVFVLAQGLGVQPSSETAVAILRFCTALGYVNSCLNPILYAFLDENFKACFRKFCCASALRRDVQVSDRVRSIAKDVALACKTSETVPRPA
Data set [6] in a line: Metabolic stability, human liver S-9. As to conditions: for half-life at 40 μM: human, s9, pH 7.4; for Half Life, Human liver preparation: 40 μM test compound, NADPH-generating system, NC = No Change.
Experimental: (§3) A typical assay mixture contained rat or mouse liver microsomes or human liver S-9 (0.4-0.5 mg of protein), 100 μM potassium phosphate buffer (pH 7.4), 40 μM test compound, an NADPH-generating system consisting of 0.5 mM NADP^+, 0.5 mM glucose-6-phosphate, 5 IU/mL glucose-6-phosphate dehydrogenase, 1 mg/mL DETAPAC and 7 mM MgCl2 for a final incubation volume of 0.1 mL^23. […] After centrifugation at 13,000 rpm for 5 min, the organic fraction was collected and the solvent was removed with a stream of argon. The residue was reconstituted in methanol (200 L), centrifuged at 13,000 rpm for 5 min and the supernatant was analyzed by high-performance liquid chromatography with an Axxi-chrom (straight-phase) silica column (4.6 mm×250 mm, 5 m) or with a Supelco (reverse-phase) HS F5 pentafluorophenyl column (4.6 mm×250 mm, 5 m) as described above.
A short description of data set [7]: Metabolic stability, mouse liver microsomes. The following applies: for half-life at 40 μM: mouse, microsomes, pH 7.4; for Half Life, Mouse liver preparation: 40 μM test compound, NADPH-generating system, NC = No Change.
Experimental: as §3
Data set [8] addresses T4, κ-opioid receptor (Mus musculus, UniProt P33534).
T4 construct: FLAG; expressed in transfected cells
The data set is described as follows: biochemical. Also noted: species or system human.

The target in data set [9] is T1, μ-opioid receptor. In words: biochemical. The following applies: read-out: Emax, μ, inhibition of basal [35S]GTPγS binding. Format: biochemical, human.
A short description of another data set: Solubility in H2O. The following applies: salt as labelled.
The subject of data set [10] is rats self-administering 0.5 mg/kg/injection of cocaine. The data set is described as follows: Cocaine self-administration, short (ShA) and long access (LgA).
Data set [11] addresses T2, δ-opioid receptor. In words: biochemical. Format: biochemical, human. The following applies: read-out: Emax, δ, inhibition of basal [35S]GTPγS binding.
Data set [12] concerns T5, κ-opioid receptor.
T5 construct: FLAG; expressed in transfected cells
T5 sequence (P33534 whole entry): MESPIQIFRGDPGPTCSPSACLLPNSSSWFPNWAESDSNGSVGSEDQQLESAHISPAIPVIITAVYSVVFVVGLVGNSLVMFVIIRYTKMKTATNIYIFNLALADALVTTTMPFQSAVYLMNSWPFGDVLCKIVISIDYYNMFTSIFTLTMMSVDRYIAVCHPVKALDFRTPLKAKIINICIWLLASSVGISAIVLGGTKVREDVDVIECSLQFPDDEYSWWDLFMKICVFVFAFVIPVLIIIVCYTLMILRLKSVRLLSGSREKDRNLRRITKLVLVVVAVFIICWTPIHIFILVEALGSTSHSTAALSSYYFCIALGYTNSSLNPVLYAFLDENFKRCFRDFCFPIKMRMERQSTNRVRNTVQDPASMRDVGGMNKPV
The data set is described as follows: biochemical. As to conditions: read-out: Emax, κ, inhibition of basal [35S]GTPγS binding. In kind it is biochemical, human.

Data set [13] addresses T3, NOP (nociceptin) receptor. The data set is described as follows: Inhibition of basal [35S]GTPγS binding (inverse agonism), NOP. Format: biochemical. Set-up: FLAG; expressed in transfected cells.
Data set [14] in a line: Metabolism of compound 6 in human liver microsomes. The following applies: going from pH 7.4 to pH 10.
Experimental: For analysis, 50 μg of 6,6-N-oxide and bromobenzoic acid was used as TLC standards and the UV-vis bands corresponding to these regions were scraped and placed in scintillation vials for counting and quantification. For the HPLC assay, the incubation was stopped by the addition of isopropanol/CH2Cl2 (3/1, v/v), mixed thoroughly and the organic layer was separated by centrifugation. […] The analytes were quantified on the basis of HPLC peak height.
The mark [15] stands for this setting: read-out: Emax, μ, stimulation of [35S]GTPγS binding.
Setting [16] is: read-out: Emax, δ, stimulation of [35S]GTPγS binding.
Setting [17] is: read-out: Emax, κ, stimulation of [35S]GTPγS binding.
Where [18] appears, read: doses of 0.0125, 0.025 and 0.05 mg/kg.

Read-outs that look alike come from different tables or passages of the source.

T1 sequence (P42866 whole entry): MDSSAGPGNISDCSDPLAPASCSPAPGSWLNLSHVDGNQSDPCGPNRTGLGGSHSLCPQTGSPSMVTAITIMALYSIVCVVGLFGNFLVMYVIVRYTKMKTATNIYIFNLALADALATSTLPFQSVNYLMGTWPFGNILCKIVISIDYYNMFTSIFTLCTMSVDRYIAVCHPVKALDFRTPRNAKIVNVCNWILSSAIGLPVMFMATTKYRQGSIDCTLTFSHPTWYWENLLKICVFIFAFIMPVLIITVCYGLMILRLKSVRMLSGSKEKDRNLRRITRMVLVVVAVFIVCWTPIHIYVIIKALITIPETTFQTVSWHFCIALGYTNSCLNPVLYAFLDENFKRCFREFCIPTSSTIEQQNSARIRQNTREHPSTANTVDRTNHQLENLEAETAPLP
T4 sequence (P33534 whole entry): as the sequence (P33534 whole entry) above
T2 sequence (P32300 whole entry): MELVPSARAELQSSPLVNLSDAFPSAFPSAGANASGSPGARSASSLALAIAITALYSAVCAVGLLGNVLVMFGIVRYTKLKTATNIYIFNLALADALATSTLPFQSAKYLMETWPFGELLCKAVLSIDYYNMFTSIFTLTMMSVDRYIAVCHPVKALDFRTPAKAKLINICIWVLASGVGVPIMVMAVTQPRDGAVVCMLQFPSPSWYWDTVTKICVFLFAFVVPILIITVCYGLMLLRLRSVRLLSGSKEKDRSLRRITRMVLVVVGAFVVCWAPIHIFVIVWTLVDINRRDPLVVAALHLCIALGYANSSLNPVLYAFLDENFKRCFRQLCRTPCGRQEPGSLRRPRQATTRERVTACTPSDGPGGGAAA

As for `O=C(N[C@@H]1CC[C@@]2(O)[C@H]3Cc4ccc(O)c5c4[C@@]2(CCN3CC2CC2)[C@H]1O5)c1ccc(I)cc1` [Compound 7, 6-β-(4′-Iodo)benzamido-14-hydroxy-17-(cyclopropylmethyl)nordesmorphine], the values for the maximal effect (Emax) (on μ-opioid receptor [1] (setting [15]); on δ-opioid receptor [2] (setting [16]); in data set [5]) were 28 to 63%, 28 to 63% and 0%, respectively. Also, in data set [3], the “Overall effect on operant self-administration of 10% ethanol” value (shortened to “Overall effect … of 10% ethanol”) was “had an overall effect”. The “Post hoc analysis vs vehicle, operant self-administration of 10% ethanol” value (“Post hoc analysis vs vehicle … of 10% ethanol” for short) in data set [3] (only a dose of 0.05 mg/kg) is listed as “significantly inhibited”. Further, the “Overall effect on operant self-administration of saccharin vs vehicle” value (“Overall effect … vs vehicle” below) in data set [4] was “did have an overall effect”.
In data set [5], “[D-pen2, D-pen5]-enkephalin [Compound 14, reference compound]” gave a maximum response (Emax) of 0%.
In the case of `CC(C)(C)c1ccc(C(=O)N[C@@H]2CC[C@@]3(O)[C@H]4Cc5ccc(O)c6c5[C@@]3(CCN4CC3CC3)[C@H]2O6)cc1` [Compound 8, 6-(4′-t-Butyl)benzamido-14-hydroxy-17-(cyclopropylmethyl)nordesmorphine], the melting point was 151.1 °C. In addition, the “Overall effect … of 10% ethanol” value in data set [3] is “had an overall effect”. Besides, in data set [3] (only a dose of 0.05 mg/kg), the “Post hoc analysis vs vehicle … of 10% ethanol” value is “significantly inhibited”. For the same compound, the “Overall effect … vs vehicle” value in data set [4] is “did not have an overall effect”. Also, the Emax in [5] was determined as 0%. The compound also gave a half-life at 40 μM in data set [6] of more than 1.87 h. In data set [7], this compound showed a half-life at 40 μM of more than 1.87 h.
Take `O=C(N[C@@H]1CC[C@@]2(O)[C@H]3Cc4ccc(O)c5c4[C@@]2(CCN3CC2CC2)[C@H]1O5)c1ccc(C(F)(F)F)cc1` [Compound 5, 6-β-(4′-Trifluoromethyl)benzamido-14-hydroxy-17-(cyclopropylmethyl)nordesmorphine]: the melting point turned out to be 157.5 °C. Also, the Emax on μ-opioid receptor [1] (setting [15]) fell in the range of 28 to 63%. For the same compound, the maximal effect (Emax) on κ-opioid receptor [8] (setting [17]) was 28 to 63%. For the same compound, the “Overall effect … of 10% ethanol” value in data set [3] is “had an overall effect”. Also, the “Post hoc analysis vs vehicle … of 10% ethanol” value in [3] (setting [18]) is recorded as “significantly inhibited”. For the same compound, the “Overall effect … vs vehicle” value in [4] is “did have an overall effect”. Further, the “Post-hoc analysis vs vehicle, self-administration of saccharin” value in data set [4] ([…] for 5, 0.05 mg/kg for 6, the only such doses) is on record as “significantly inhibited”. The same compound displayed an Emax in data set [5] of 0%. Besides, the “Half Life, Human liver preparation” value in [6] is “remained unchanged”. For the same compound, the “Half Life, Mouse liver preparation” value in data set [7] is recorded as “remained unchanged”.
`Cc1ccc(C(=O)N[C@@H]2CC[C@@]3(O)[C@H]4Cc5ccc(O)c6c5[C@@]3(CCN4CC3CC3)[C@H]2O6)cc1` [Compound 4, 6-β-(4′-Methyl)benzamido-14-hydroxy-17-(cyclopropylmethyl) nordesmorphine] yielded a melting point of 207.6 °C. Further, the maximal effect (Emax) at μ-opioid receptor [9] amounted to 3 ± 2.4%. In [5], this compound showed a maximal effect (Emax) of 0%. Besides, the “Half Life, Human liver preparation” value in data set [6] is given as “remained unchanged”. For the same compound, the “Half Life, Mouse liver preparation” value in [7] is “remained unchanged”.
On to `O=C(N[C@@H]1CC[C@@]2(O)[C@H]3Cc4ccc(O)c5c4[C@@]2(CCN3CC2CC2)[C@H]1O5)c1ccc(Br)cc1.O=C(O)C(=O)O` [Compound 6-oxalate, 6-β-(4′-Bromo)benzamido-14-hydroxy-17-(cyclopropylmethyl) nordesmorphine-oxalate], for which the “Solubility in H2O” value in the data set “Solubility in H2O” was determined as 200 µg/mL. In [10], the “Cocaine intake, schedule not stated” value is recorded as “decreased cocaine intake in both groups” and the “Cocaine self-administration under a PR schedule” value is on record as “dose-dependently decreased cocaine self-administration”.
Regarding `C=C1CC[C@@]2(O)[C@H]3Cc4ccc(O)c5c4[C@@]2(CCN3CC2CC2)[C@H]1O5` [Compound 1b, nalmefene, reference compound], in data set [3], the “Overall effect … of 10% ethanol” value was “had an overall effect” and the ED50 is approximately 0.04 mg/kg. Moreover, the “Post hoc analysis vs vehicle … of 10% ethanol” value in data set [3] (setting [18]) is reported as “significantly inhibited”. In addition, in data set [4], the “Overall effect … vs vehicle” value is reported as “did not have an overall effect”. The compound also yielded a half-life at 40 μM in data set [6] of 0.333 h. In data set [7], this compound returned a half-life at 40 μM of 0.333 h.
For the compound `O=C(N[C@@H]1CC[C@@]2(O)[C@H]3Cc4ccc(O)c5c4[C@@]2(CCN3CC2CC2)[C@H]1O5)c1ccc(Br)cc1` [Compound 6, 6-β-(4′-Bromo)benzamido-14-hydroxy-17-(cyclopropylmethyl) nordesmorphine], on μ-opioid receptor [1], the “Emax, μ, stimulation of [35S]GTPγS binding” value was 38 ± 4.3%. Moreover, the Emax on μ-opioid receptor [1] (setting [15]) was 28 to 63%; on δ-opioid receptor [2] (setting [16]), 28 to 63%; at κ-opioid receptor [8] (setting [17]), 28 to 63%; on μ-opioid receptor [9], 0%; on δ-opioid receptor [11] it was 35 ± 4.8%; in the data set on κ-opioid receptor [12], 0%. In addition, the Emax in data set [5] is 0%; in data set [13] (read-out: Emax, NOP, inhibition of basal [35S]GTPγS binding), 92 ± 7.4%. The “Emax, δ, stimulation of [35S]GTPγS binding” value at δ-opioid receptor [2] worked out at 46 ± 3.7%. For the same compound, the “Emax, κ, stimulation of [35S]GTPγS binding” value on κ-opioid receptor [8] stood at 42 ± 3.9%. Moreover, it took 94 ± 33 nM to reach a half-maximal effect in data set [13] (EC50). The half-life at 40 μM in [6] and in data set [7] was more than 1.87 h throughout. In addition, in data set [14], the “Rate of N-oxide formation, dependence on pH” value was “the rate doubled”.
On to `Oc1ccc2c3c1O[C@H]1c4[nH]c5c(c4C[C@@]4(O)[C@@H](C2)N(CC2CC2)CC[C@]314)C[C@@]1(O)[C@H]2Cc3ccc(O)c4c3[C@@]1(CCN2CC1CC1)[C@H]5O4` [Nor-BNI, reference compound], for which, in data set [10], the “Cocaine self-administration under a PR schedule” value was “decreased cocaine intake in LgA rats”.
`O=C(N[C@@H]1CC[C@@]2(O)[C@H]3Cc4ccc(O)c5c4[C@@]2(CCN3CC2CC2)[C@H]1O5)c1ccc(Cl)cc1` [Compound 10, 6-β-(4′-Chloro)benzamido-14-hydroxy-17-(cyclopropylmethyl)nordesmorphine] came in with a melting point of 188.8 °C. Moreover, the Emax at μ-opioid receptor [1] (setting [15]) was 46 ± 3.8%. Moreover, the maximal effect (Emax) at μ-opioid receptor [1] (read-out: Emax, μ, stimulation of [35S]GTPγS binding, percentage of basal [35S]GTPγS binding stimulation) was 28 to 63%. For the same compound, on δ-opioid receptor [2] (setting [16]), the Emax amounted to 22 ± 1.7%. Also, the Emax at δ-opioid receptor [2] (read-out: Emax, δ, stimulation of [35S]GTPγS binding, percentage of basal [35S]GTPγS binding stimulation) lay within 28 to 63%. Also, the Emax at κ-opioid receptor [8] (read-out: Emax, κ, stimulation of [35S]GTPγS binding, percentage of basal [35S]GTPγS binding stimulation) fell in the range of 28 to 63%. Besides, the Emax at μ-opioid receptor [9] stood at 0%. For the same compound, on δ-opioid receptor [11], the Emax was found to be 0%. Also, in the data set with κ-opioid receptor [12], the Emax is 0%. The midpoint of the response in data set [13], the EC50, lay at 88 ± 19 nM.
Regarding `O=C1CC[C@@]2(O)[C@H]3Cc4ccc(O)c5c4[C@@]2(CCN3CC2CC2)[C@H]1O5` [Compound 1a, naltrexone, reference compound], in data set [3], the ED50 was approximately 0.5 mg/kg. The “Cocaine intake, schedule not stated” value in [10] is “decreased cocaine intake in both groups”.

(Values after US8778958B2, “Synthesis of metabolically stable agents for alcohol and drug abuse” (priority 2008, dated 2014).)
